Experimental findings from patent publication US7727986B2, “Pesticide pyrimidinyloxy substituted phenylamidine derivatives” (Bayer CropScience AG, priority 2005, dated 2010) are described below.

A short description of data set [1]: logP by HPLC on reversed-phase column (C 18), EEC Directive 79/831 Annex V.A8. As to conditions: HPLC, 0.1% aqueous formic acid and acetonitrile, 40° C.; pH 2.3. It is filed as physicochemical. On the procedure: Temperature: 40° C.; Mobile phases: 0.1% aqueous formic acid and acetonitrile; linear gradient from 10% acetonitrile to 90% acetonitrile.
A further data set relates to Myzus persicae. Kind of data set: In vivo protective test on Myzus persicae (MYZUPE). As to conditions: Chinese cabbage leaf-disks infected with green peach aphid, sprayed; concentration not given. The procedure: In vivo Protective Test on Myzus persicae (MYZUPE)
(§1) To produce a suitable preparation of active compound, 1 part by weight of active compound is mixed with the stated amount of solvent and emulsifier, and the concentrate is diluted with emulsifier-containing water to the desired concentration.
Chinese cabbage (Brassica pekinesis) leaf-disks infected with all instars of the green peach aphid (Myzus persicae), are sprayed with a preparation of the active ingredient at the desired concentration.
After the specified period of time, mortality in % is determined. 100% means that all aphids have been killed; 0% means that none of the aphids have been killed.

The next data set deals with Phaedon cochleariae. The data set is described as follows: In vivo protective test on Phaedon cochleariae (PHAECO). As to conditions: Chinese cabbage leaf-disks sprayed, infested with mustard beetle larvae; concentration not given. On the procedure: In vivo Protective Test on Phaedon cochleariae (PHAECO)
as §1
Chinese cabbage (Brassica pekinesis) leaf-disks are sprayed with a preparation of the active ingredient of the desired concentration. Once dry, the leaf disks are infested with mustard beetle larvae (Phaedon cochleariae).
After the specified period of time, mortality in % is determined. 100% means that all beetle larvae have been killed and 0% means that none of the beetle larvae have been killed.

Another data set relates to Tetranychus urticae. The data set is described as follows: In vivo protective test on Tetranychus urticae (TETRUR). The note with it: French bean infested with two spotted spidermite, sprayed; concentration not given. The procedure:
In vivo Protective Test on Tetranychus urticae (TETRUR)
as §1
French bean (Phaseolus vulgaris) which are heavily infested with all stages of the two spotted spidermite (Tetranychus urticae), are sprayed with a preparation of the active ingredient at the desired concentration.
After the specified period of time, mortality in % is determined. 100% means that all spider mites have been killed and 0% means that none of the spider mites have been killed.

`CCCN(C)C=Nc1cc(C)c(Oc2ccnc(Oc3ccccc3)n2)cc1C` [Compound 36] returned a logPa in data set [1] of 1.87. Moreover, in the data set with Myzus persicae, the “activity (mortality)” value is “good activity”.

In the case of `CCN(C)C=Nc1cc(C)c(Oc2ccnc(Oc3cccc(Cl)c3)n2)cc1C` [Compound 65], the logPa in data set [1] is 2.04. The “activity (mortality)” value with Myzus persicae is listed as “good activity”.

In data set [1], `Cc1cc(Oc2cc(C)c(N=CN(C)C(C)C)cc2C)nc(Cl)n1` [Compound 41] returned a logPa of 1.57. Moreover, the “activity (mortality)” value with Myzus persicae was “good activity”.

On to `CCCN(C)C=Nc1cc(C)c(Oc2ccnc(Oc3cccc(Cl)c3C)n2)cc1C` [Compound 18], for which the “activity (mortality)” value with Phaedon cochleariae was “good activity”. In addition, in data set [1], the logPa is 2.21.

In turn, `CCN(C)C=Nc1cc(C)c(Oc2ccnc(N(C)C)n2)cc1C` [Compound 37] yielded a logPa in data set [1] of 0.66. In addition, in the data set on Tetranychus urticae, the “activity (mortality)” value is “good activity”.
